Measurements as given in PMC12122562, “Phase 1 studies of the indenoisoquinolines LMP776 and LMP744 in patients with solid tumors and lymphomas” (Cancer Chemotherapy and Pharmacology, 2025).

Target: T1, TOP1 (Homo sapiens, UniProt P11387)
T1 construct: paired pre-treatment and on-treatment tumor biopsies (C1D2, 2–4 h after dosing) from 6 patients receiving LMP744 at the MTD; from tissue; host or cells: core needle tumor biopsies from patients (LMP744 expansion cohort)
T1 sequence (P11387 1-765): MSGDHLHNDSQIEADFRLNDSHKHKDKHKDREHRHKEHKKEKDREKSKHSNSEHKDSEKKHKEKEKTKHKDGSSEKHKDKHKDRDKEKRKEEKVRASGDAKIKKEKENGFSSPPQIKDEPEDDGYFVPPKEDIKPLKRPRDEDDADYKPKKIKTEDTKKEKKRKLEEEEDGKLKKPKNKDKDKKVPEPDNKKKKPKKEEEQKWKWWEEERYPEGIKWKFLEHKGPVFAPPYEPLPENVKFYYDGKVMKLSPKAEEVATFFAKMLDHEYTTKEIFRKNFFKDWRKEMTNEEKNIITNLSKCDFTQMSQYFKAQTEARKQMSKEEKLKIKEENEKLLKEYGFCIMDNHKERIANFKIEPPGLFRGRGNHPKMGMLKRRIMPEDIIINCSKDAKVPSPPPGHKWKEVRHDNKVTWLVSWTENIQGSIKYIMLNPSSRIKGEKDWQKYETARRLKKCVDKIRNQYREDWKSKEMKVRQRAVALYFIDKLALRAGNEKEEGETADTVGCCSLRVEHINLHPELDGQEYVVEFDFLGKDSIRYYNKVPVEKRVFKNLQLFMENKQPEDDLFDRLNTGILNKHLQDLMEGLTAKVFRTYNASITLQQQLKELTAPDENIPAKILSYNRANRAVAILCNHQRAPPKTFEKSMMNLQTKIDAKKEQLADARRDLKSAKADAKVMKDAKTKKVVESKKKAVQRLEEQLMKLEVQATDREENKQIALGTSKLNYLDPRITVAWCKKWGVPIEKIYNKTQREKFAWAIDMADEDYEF
Assay: qIF of paired tumor biopsies: nuclear TOP1
Assay type: in vivo
From the text: The LMP744 protocol collected pre-treatment (baseline) and on-treatment paired biopsies from patients in the expansion cohort. Core needle tumor biopsies (18-gauge) were collected and flash-frozen at point of collection per NCI SOPs (https://dctd.cancer.gov/ResearchResources/biomarkers/docs/par/SOP340507_Biopsy_Frozen.pdf) as described to preserve labile post-translational modifications such as phosphorylation. Biopsy pairs were thawed in formalin, fixed in paraffin embedded together with control tissues following NCI SOP340550 (https://dctd.cancer.gov/ResearchResources/biomarkers/DDR3/SOP340550_Biopsy_Section_Testis_Jejunum_Controls.pdf). TOP1 and TOP1cc were measured with a cocktail containing custom-conjugated rabbit monoclonal antibody anti-TOP1-DIG (Abcam, EPR5376 (2)) and mouse monoclonal antibody anti-TOP1cc (clone 1.1A [34, 35], EMD Millipore) that were detected with reporter secondary antibodies AlexaFluor-647 IgG fraction monoclonal mouse anti-digoxin (Jackson ImmunoResearch) and goat/anti-mouse AlexaFluor-488, respectively. Phosphorylated KAP1 (pKAP1, phosphorylated at S824) was measured using custom-conjugated pKAP1-pS824-DNP (Abcam, EPR5248) and detected with AlexaFluor-488 conjugated with anti-dinitrophenyl-KLH rabbit IgG Antibody Fraction (DNP-488, ThermoFisher). Validated immunofluorescence assays (IFAs) were used to measure levels of γH2AX, phosphorylated NBS1 (pNBS1, phosphorylated at Ser343), and RAD51 [15, 17, 19, 29]. Antibodies in all clinical immunofluorescence staining protocols were used as a cocktail with β-catenin as a tumor marker as previously described. After staining with primary antibodies, washing, and staining with secondary antibodies, slides were rinsed in 1X PBS and blotted to remove excess liquid. Slides were cured overnight with Prolong Gold Antifade Reagent (Invitrogen) in the dark and imaged the following day. Confocal images (12-bit) were acquired at 20X using a Nikon A1 scan head on a Nikon 90i microscope at 0.24 µm/pixel to measure nuclear TOP1 and nuclear foci of TOP1cc and RAD51. […] TOP1, γH2AX, pNBS1, and pKAP1 were measured as the percentage of DAPI-stained tumor cell nuclear area that was positive for the biomarker (% NAP); RAD51 [19] and TOP1cc was measured as a function of the percentage of nuclei with ≥ 5 foci (RAD51) or ≥ 19 foci (TOP1cc). Apoptosis was measured using a validated IFA of tumor cells positive for both cCasp3 blebbing in the cytoplasm and γH2AX in the nucleus. Anti-SLFN11 rabbit monoclonal antibody (Cell Signaling Technology, clone D8W1B) was detected by immunohistochemistry (IHC) using Bond Polymer Detection kit (Leica) and scanned in 20X widefield Aperio (Leica), and the distribution of staining intensity of tumor cell nuclei graded as 0, 1 + , 2 + or 3 + was converted into an H-score. […]

SMILES: COc1cc2c3c(n(CCCNCCO)c(=O)c2cc1OC)-c1cc2c(cc1C3=O)OCO2 [LMP744]
- Nuclear TOP1, change in the biopsy cohort (6 patients at MTD, P = 0.1448): no significant changes
- Nuclear TOP1 (patient 29, MTD, C1D2): neither biomarker changed with treatment
- Nuclear TOP1 (patient 31, MTD, C1D2): decreased nearly to background levels
- Decrease of nuclear TOP1 (patient 33, MTD, C1D2): 57%
